Source: paper PMC10288853 (Frontiers in Oncology, 2023)
Values joined by “and” are separate entries in the source; they are usually repeats but may differ in a detail not shown here. Identical values can stand only once. Values belong to the compound of their own block, whether it stands above or below them.

Key:
[1] = Plasma pharmacokinetics by LC-MS/MS; conditions: for AUC(0-t) / Cmax / Tmax: human, plasma, oral; for Cmax: Median Cmax [Min; for Tmax: Median Tmax [Min
[2] = test system: patients with metastatic uveal melanoma; assay: Safety and tolerability: adverse events in phase Ib patients; conditions: given in the combination, all patients
[3] = human, in vivo
clinical = conditions: human, in vivo, median AUC0-8hr of sotrastaurin
[4] = test system: metastatic uveal melanoma; parameters: method as in PMID 34551229, PMID 35254876; conditions: previously untreated HLA-A*0201 positive patients, versus best alternative care; ref [6], [7]; cited from earlier work
[5] = b.i.d. dosing in combination with sotrastaurin
[6] = Max], plasma binimetinib, 2nd section, Cycle 1 Day 1 (C1D1), Dose Level 1: AEB071 150 mg bid and MEK162 45 mg bid
[7] = Max], plasma binimetinib, 2nd section, Cycle 1 Day 1 (C1D1), Dose Level 3: AEB071 300 mg bid and MEK162 30 mg bid
[8] = Max], plasma binimetinib, 2nd section, Cycle 1 Day 1 (C1D1), Dose Level 4: AEB071 300 mg bid and MEK162 45 mg bid
[9] = Max], plasma binimetinib, 2nd section, Cycle 1 Day 1 (C1D1), Dose Level 5: AEB071 350 mg bid and MEK162 30 mg bid
[10] = Max], plasma binimetinib, 2nd section, Cycle 1 Day 1 (C1D1), Dose Level 6: AEB071 400 mg bid and MEK162 30 mg bid
[11] = Max], plasma binimetinib, Cycle 1 Day 1 (C1D1), Dose Level 1: AEB071 150 mg bid and MEK162 45 mg bid
[12] = Max], plasma binimetinib, Cycle 1 Day 1 (C1D1), Dose Level 2: AEB071 200 mg bid and MEK162 45 mg bid
[13] = Max], plasma binimetinib, Cycle 1 Day 1 (C1D1), Dose Level 3: AEB071 300 mg bid and MEK162 30 mg bid
[14] = Max], plasma binimetinib, Cycle 1 Day 1 (C1D1), Dose Level 4: AEB071 300 mg bid and MEK162 45 mg bid
[15] = Max], plasma binimetinib, Cycle 1 Day 1 (C1D1), Dose Level 5: AEB071 350 mg bid and MEK162 30 mg bid
[16] = Max], plasma binimetinib, Cycle 1 Day 1 (C1D1), Dose Level 6: AEB071 400 mg bid and MEK162 30 mg bid

median RACC of binimetinib, other three dose levels lower than or close to 1 [1, 5]: 0.76 and 0.78 and 1.08
median RACC of binimetinib, three dose levels much higher than 1 [1, 5]: 1.34 and 1.42 and 1.54
AUC(0-t) ([1]; 30 mg, median AUC0-8hr range of binimetinib, cycle 1 day 15, binimetinib 30 mg b.i.d. with varying doses of sotrastaurin): 1210 to 1450 ng·h/mL
AUC(0-t) ([1]; 45 mg, median AUC0-8hr range of binimetinib, cycle 1 day 15, binimetinib 45 mg b.i.d. with varying doses of sotrastaurin): 1480 to 2140 ng·h/mL
AUC(0-t) ([1]; Median AUC0–8hr [Min, Max], plasma binimetinib, 2nd section, Cycle 1 Day 1 (C1D1), Dose Level 1: AEB071 150 mg bid and MEK162 45 mg bid): 2000 ng·h/mL
AUC(0-t) ([1]; Median AUC0–8hr [Min, Max], plasma binimetinib, 2nd section, Cycle 1 Day 1 (C1D1), Dose Level 3: AEB071 300 mg bid and MEK162 30 mg bid): 1210 ng·h/mL
AUC(0-t) ([1]; Median AUC0–8hr [Min, Max], plasma binimetinib, 2nd section, Cycle 1 Day 1 (C1D1), Dose Level 4: AEB071 300 mg bid and MEK162 45 mg bid): 1480 ng·h/mL
AUC(0-t) ([1]; Median AUC0–8hr [Min, Max], plasma binimetinib, 2nd section, Cycle 1 Day 1 (C1D1), Dose Level 5: AEB071 350 mg bid and MEK162 30 mg bid): 1250 ng·h/mL
AUC(0-t) ([1]; Median AUC0–8hr [Min, Max], plasma binimetinib, 2nd section, Cycle 1 Day 1 (C1D1), Dose Level 6: AEB071 400 mg bid and MEK162 30 mg bid): 1450 ng·h/mL
AUC(0-t) ([1]; Median AUC0–8hr [Min, Max], plasma binimetinib, Cycle 1 Day 1 (C1D1), Dose Level 1: AEB071 150 mg bid and MEK162 45 mg bid): 1540 ng·h/mL
AUC(0-t) ([1]; Median AUC0–8hr [Min, Max], plasma binimetinib, Cycle 1 Day 1 (C1D1), Dose Level 2: AEB071 200 mg bid and MEK162 45 mg bid): 1550 ng·h/mL
AUC(0-t) ([1]; Median AUC0–8hr [Min, Max], plasma binimetinib, Cycle 1 Day 1 (C1D1), Dose Level 3: AEB071 300 mg bid and MEK162 30 mg bid): 1130 ng·h/mL
AUC(0-t) ([1]; Median AUC0–8hr [Min, Max], plasma binimetinib, Cycle 1 Day 1 (C1D1), Dose Level 4: AEB071 300 mg bid and MEK162 45 mg bid): 1610 ng·h/mL
AUC(0-t) ([1]; Median AUC0–8hr [Min, Max], plasma binimetinib, Cycle 1 Day 1 (C1D1), Dose Level 5: AEB071 350 mg bid and MEK162 30 mg bid): 1260 ng·h/mL
AUC(0-t) ([1]; Median AUC0–8hr [Min, Max], plasma binimetinib, Cycle 1 Day 1 (C1D1), Dose Level 6: AEB071 400 mg bid and MEK162 30 mg bid): 985 ng·h/mL
Cmax [1, 6]: 493 ng/mL
Cmax ([1]; Max], plasma binimetinib, 2nd section, Cycle 1 Day 1 (C1D1), Dose Level 2: AEB071 200 mg bid and MEK162 45 mg bid): 410 ng/mL
Cmax [1, 7]: 246 ng/mL
Cmax [1, 8]: 391 ng/mL
Cmax [1, 9]: 280 ng/mL
Cmax [1, 10]: 346 ng/mL
Cmax [1, 11]: 366 ng/mL
Cmax [1, 12]: 450 ng/mL
Cmax [1, 13]: 213 ng/mL
Cmax [1, 14]: 370 ng/mL
Cmax [1, 15]: 259 ng/mL
Cmax [1, 16]: 279 ng/mL
Tmax [1, 6]: 2 h
Tmax [1, 7]: 3 h
Tmax [1, 8]: 2.9 h
Tmax [1, 9]: 1.9 h
Tmax [1, 10]: 1.5 h
Tmax [1, 11]: 1.1 h
Tmax [1, 12]: 1.1 h
Tmax [1, 13]: 2 h
Tmax [1, 14]: 4 h
Tmax [1, 15]: 2 h
Tmax [1, 16]: 1.1 h
Median AUC0–8hr [Min; Max] ([1]; plasma binimetinib, 2nd section, Cycle 1 Day 1 (C1D1), Dose Level 2: AEB071 200 mg bid and MEK162 45 mg bid): 2137.7 [1121.6; 2772.3] hr*ng/ml
Compound: Cn1cnc2c(F)c(Nc3ccc(Br)cc3F)c(C(=O)NOCCO)cc21 [binimetinib]
Dose reductions applied [2]: 65.8%

Compound: CN1CCN(c2nc(C3=C(c4c[nH]c5ccccc45)C(=O)NC3=O)c3ccccc3n2)CC1 [sotrastaurin]
median RACC, range at different doses of sotrastaurin [3]: 0.72-1.15
AUC(0-t) (clinical; 150 mg): 6070 ng·h/mL
AUC(0-t) (clinical; 400 mg): 21600 ng·h/mL
accumulation of sotrastaurin following b.i.d. dosing ([1]; exposure on day 15 compared with day 1): no observed accumulation
Dose reductions applied [2]: 76.3%

Compound: tebentafusp: agent improving overall survival in previously untreated HLA-A*0201 positive metastatic uveal melanoma patients
hazard ratio for death [4]: 0.51
reduction in the risk of death [4]: 49%
